For one series, the target named is T1, SGLT2 (Homo sapiens, UniProt P31639).
T1 construct: Human full-length SGLT2 cDNA (NM_003041.3) was synthesized; expressed in transfected cells; host or cells: HEK293, retroviral transduction with pMSCVpuro-SGLT2, puromycin selected
T1 sequence (P31639 1-672): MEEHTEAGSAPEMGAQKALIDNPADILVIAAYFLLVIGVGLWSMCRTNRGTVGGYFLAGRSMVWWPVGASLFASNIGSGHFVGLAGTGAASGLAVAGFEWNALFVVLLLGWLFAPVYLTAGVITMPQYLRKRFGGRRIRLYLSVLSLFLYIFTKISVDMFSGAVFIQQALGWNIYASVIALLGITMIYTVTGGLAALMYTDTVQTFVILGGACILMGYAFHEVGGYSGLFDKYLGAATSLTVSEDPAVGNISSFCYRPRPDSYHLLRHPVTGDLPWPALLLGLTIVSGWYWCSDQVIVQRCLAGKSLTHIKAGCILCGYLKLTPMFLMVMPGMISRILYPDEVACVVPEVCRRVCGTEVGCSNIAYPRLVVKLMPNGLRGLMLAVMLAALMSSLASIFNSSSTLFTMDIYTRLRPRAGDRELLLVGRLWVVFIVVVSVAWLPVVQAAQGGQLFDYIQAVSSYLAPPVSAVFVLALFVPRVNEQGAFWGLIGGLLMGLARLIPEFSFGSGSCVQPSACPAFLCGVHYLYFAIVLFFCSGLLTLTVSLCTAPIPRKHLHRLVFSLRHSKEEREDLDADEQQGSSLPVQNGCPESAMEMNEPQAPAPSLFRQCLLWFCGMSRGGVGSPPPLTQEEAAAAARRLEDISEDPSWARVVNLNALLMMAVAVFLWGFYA
As to the kind of experiment: 1-NBDG uptake in HEK293 cells stably expressing SGLT2. The series is classed as cell-based. The settings on record: HEK293, compound at 10 μM; triplicate; read-out: SGLT2 inhibitory rates.

In series [1] the test system is Influenza A/WSN/33 (H1N1). As to the kind of experiment: microbe, parasite or virus in culture. The series is classed as cell-based. The settings on record: — = no inhibition activity.
The target in the next series is AbCGT (Aloe vera, UniProt A0A7G9P699). The experiment in a line: Glycosyltransferase activity assay, purified AbCGT (wild type) with aglycon acceptors and UDP-Glc. The series is classed as biochemical, Aloe barbadensis. The settings on record: fig. 2b, purified AbCGT, redesigned substrates; Reaction-1 to -3.
AbCGT, sequence (A0A7G9P699 entry or part of it): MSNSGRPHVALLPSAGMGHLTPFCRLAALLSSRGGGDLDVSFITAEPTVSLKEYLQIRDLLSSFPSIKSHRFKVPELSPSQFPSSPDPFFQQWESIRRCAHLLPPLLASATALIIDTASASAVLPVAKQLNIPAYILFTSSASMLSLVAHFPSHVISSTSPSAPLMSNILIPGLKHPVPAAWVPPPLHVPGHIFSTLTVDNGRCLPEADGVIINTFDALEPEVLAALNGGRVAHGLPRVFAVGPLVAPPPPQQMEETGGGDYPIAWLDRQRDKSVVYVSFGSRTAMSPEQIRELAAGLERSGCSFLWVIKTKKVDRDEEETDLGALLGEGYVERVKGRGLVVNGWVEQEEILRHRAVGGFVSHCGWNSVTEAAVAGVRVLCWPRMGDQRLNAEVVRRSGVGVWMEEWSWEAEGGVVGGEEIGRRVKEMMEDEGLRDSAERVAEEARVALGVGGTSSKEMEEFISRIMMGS
For a further series, the system named is E. coli-AbCGT. As to the kind of experiment: Glycosylation by whole-cell biocatalyst E. coli-AbCGT. Conditions: fig. 2c, 30 °C, M9 medium, 12 h, 0.25 mM acceptor; Reaction-1 to -3. The series is classed as cell-based. Here is the method:
The induced cells of E. coli-AbCGT were harvested by centrifugation at 3000 × g for 5 min at 4 °C and washed with ddH2O. Pellets were resuspended by M9 minimal medium containing 2% glucose to appropriate cell density (OD600 = 3.0). Prepared whole-cell biocatalyst of E. coli-AbCGT (500 μL) was then added to 2-mL tubes containing various acceptors at a concentration of 0.25 mM. The mixture was incubated at 30 °C for 12 h with shaking (200 rpm). The reactions were analyzed using GT activity assays as described above. For quantification, three parallel assays were routinely carried out.

The nature of the next series: in vitro. The settings on record: human.

“And” between values parts separate entries of the source, which are not always exact repeats. Identical values can stand only once.

In the case of `Oc1cc(O)c(Cc2ccc3nccnc3c2)c(O)c1` [Compound 44], the inhibition at 10 µM at SGLT2 turned out to be 0.2%. For the same compound, the inhibition at 20 µM in series [1] (final concentration 20 μM, read-out: Inhibitory Rates, anti-influenza A virus activity) was under 0%. Further, the IC50 (in general, the concentration that gives 50% inhibition) in series [1] (read-out: IC50, anti-influenza A virus activity) is over 20 µM. In addition, the “conversion rates, Purified Enzyme” value on AbCGT turned out to be 100%. The “conversion rates, Whole cells” value in the series with E. coli-AbCGT is 7.1% and 12.8% and 10.1%. Moreover, the CC50 in the series “in vitro” is over 200 µM.

These data come from article PMC7558026, “Exploring and applying the substrate promiscuity of a C-glycosyltransferase in the chemo-enzymatic synthesis of bioactive C-glycosides” (Nature Communications, 2020).
